The numbers were not newly measured in article PMC11887511 (Crystal Growth & Design, 2025), which cites them from elsewhere.

Each structure is given as a SMILES string.

For the series the following is noted: no reference given.

Take `O=C(O)CNCC(=O)O` [IDA, iminodiacetic acid]: the pKa1 was 2.12, the pKa2 was 2.90 and the “pKa[base]” value is listed as 9.63.
